Results published in paper PMC9791066, “Investigations into the antibacterial effects and potential mechanism of gambogic acid and neogambogic acid” (Frontiers in Microbiology, 2022).
≈ marks a conversion by molar mass, not a printed value. Read-outs that look alike come from different tables or passages of the source.

How the values were obtained:
[1] = tested on: Enterococcus faecalis ATCC29212; test: MIC, microtiter broth dilution; format: cell-based; conditions: LB broth, 18 h
Description: (§1) Antibacterial activities were performed by examining the minimal inhibitory concentrations (MICs), which was determined by a microtiter broth dilution method as previously described ([Cotsonas King and Wu, 2009]), with minor modifications. Briefly, 96-well plates (Corning) were inoculated with 100 μl of LB broth per well containing 7 × 10^5 CFU/mL bacteria, followed by adding 100 μl of LB broth containing two-fold serial dilutions of the test compounds. […] After 18 h of incubation, the MIC was determined to be the lowest concentration without visible bacterial growth. The results were the averages of at least three biological replicates.

[2] = tested on: Escherichia coli ATCC25922; test: MIC, microtiter broth dilution; format: cell-based; conditions: LB broth, 18 h
Description: as §1

[3] = tested on: Listeria monocytogenes ATCC19117; test: MIC, microtiter broth dilution; format: cell-based; conditions: LB broth, 18 h
Description: as §1

[4] = tested on: Staphylococcus aureus ATCC29213; test: MIC, microtiter broth dilution; format: cell-based; conditions: LB broth, 18 h
Description: as §1

MRSA = test: MIC, microtiter broth dilution; format: cell-based, Staphylococcus aureus; conditions: LB broth, 18 h
Description: as §1

Escherichia coli BAS 849 = test: microbe, parasite or virus in culture; format: cell-based; conditions: LB broth, 18 h, strain with deficient outer-membrane structure
Description: as §1

[5] = tested on: Escherichia coli BL21 (DE3); test: microbe, parasite or virus in culture; format: cell-based; conditions: LB broth, 18 h
Description: as §1

Escherichia coli DH5α = test: microbe, parasite or virus in culture; format: cell-based; conditions: LB broth, 18 h
Description: as §1

[6] = Enterococcus faecalis, ATCC29212, read-out: MIC
[7] = Listeria monocytogenes, ATCC19117, read-out: MIC
[8] = Staphylococcus aureus, ATCC29213, read-out: MIC
[9] = Staphylococcus aureus, MRSA, read-out: MIC
[10] = Escherichia coli, read-out: MIC

| SMILES | MIC [1, 6] [µg/mL] | MIC ([2]; Escherichia coli, ATCC25922, read-out: MIC) [µg/mL] | MIC [3, 7] [µg/mL] | MIC [4, 8] [µg/mL] | MIC (MRSA; [9]) [µg/mL] | MIC (Escherichia coli BAS 849; Escherichia coli, BAS849, read-out: MIC) [µg/mL] | MIC [5, 10] [µg/mL] | MIC (Escherichia coli DH5α; [10]) [µg/mL] | MIC [1] [µg/mL] | MIC [2] [µg/mL] | MIC [3] [µg/mL] | MIC [4] [µg/mL] | MIC (MRSA) [µg/mL] | MIC (Escherichia coli BAS 849) [µg/mL] | MIC [5] [µg/mL] | MIC (Escherichia coli DH5α) [µg/mL] |
| --- | --- | --- | --- | --- | --- | --- | --- | --- | --- | --- | --- | --- | --- | --- | --- | --- |
| CC1(C)S[C@@H]2[C@H](NC(=O)[C@H](N)c3ccccc3)C(=O)N2[C@H]1C(=O)O [Amp, ampicillin] | 0.5 (≈ 1.43 µM) | 1 (≈ 2.86 µM) | 1 (≈ 2.86 µM) | 1 (≈ 2.86 µM) | 1 (≈ 2.86 µM) | 0.5 (≈ 1.43 µM) | 1 (≈ 2.86 µM) | 2 (≈ 5.72 µM) |  |  |  |  |  |  |  |  |
| CN(C)[C@@H]1C(O)=C(C(N)=O)C(=O)[C@@]2(O)C(O)=C3C(=O)c4c(O)cccc4[C@@](C)(O)[C@H]3C[C@@H]12 [Tet, Tetracycline] | 8 (≈ 18 µM) |  | 2 (≈ 4.5 µM) | 0.5 (≈ 1.13 µM) | 2 (≈ 4.5 µM) |  |  |  |  |  |  |  |  |  |  |  |
| COc1cc(O)c2c(O)c3c(c4c2c1[C@]1(C4)C(C)=CCCC1(C)C)[C@H](O)[C@@]1(O)CC(=O)C(C(N)=O)=C(O)[C@@]1(O)C3=O [VirA, viridicatumtoxins A] |  |  |  |  |  |  |  |  | 2 (≈ 3.54 µM) | > 64 | 2 (≈ 3.54 µM) | 1 (≈ 1.77 µM) | 1 (≈ 1.77 µM) | 8 (≈ 14.1 µM) | > 64 | > 64 |
| COc1cc(O)c2c(O)c3c(c4c2c1C1(C4)C(C)=CCCC1(C)C)C1(O)OC12CC(=O)C(C(N)=O)=C(O)C2(O)C3=O (stereo not shown) [VirB, viridicatumtoxins B] |  |  |  |  |  |  |  |  | 1 (≈ 1.77 µM) | > 64 | 1 (≈ 1.77 µM) | 1 (≈ 1.77 µM) | 1 (≈ 1.77 µM) | 8 (≈ 14.2 µM) | > 64 | > 64 |
